EC50 data for 8 compounds are collected here from patent US12679807B2 (MERCK SHARP & DOHME LLC, priority 2020, dated 2026).

The target of this test is T1, GCS enzyme contained within Golgi preparations isolated from human A375 malignant melanoma skin cells (Homo sapiens, UniProt Q16739).
T1 construct: endogenous levels of GCS enzyme contained within Golgi preparations isolated from human A375 malignant melanoma skin cells; endogenous in cells; host or cells: A375 human malignant melanoma cells (crude Golgi preparation)
T1 sequence (Q16739 1-394): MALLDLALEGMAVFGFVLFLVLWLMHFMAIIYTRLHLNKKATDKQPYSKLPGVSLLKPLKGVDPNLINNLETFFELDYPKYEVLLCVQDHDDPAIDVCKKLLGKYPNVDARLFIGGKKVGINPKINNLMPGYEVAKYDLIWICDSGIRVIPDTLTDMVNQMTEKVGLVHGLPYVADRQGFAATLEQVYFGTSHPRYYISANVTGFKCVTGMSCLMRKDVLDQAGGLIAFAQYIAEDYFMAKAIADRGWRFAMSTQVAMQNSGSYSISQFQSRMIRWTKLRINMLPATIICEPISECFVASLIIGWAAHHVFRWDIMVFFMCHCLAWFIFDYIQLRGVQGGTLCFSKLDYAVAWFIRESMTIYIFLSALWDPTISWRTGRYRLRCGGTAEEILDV
Briefly: UDP-Glo glucosylceramide synthase biochemical assay. To be noted: crude Golgi preparation from A375 cells; C6 ceramide and UDP-glucose substrates; 20 h incubation at room temperature; UDP detected by luminescence. The gist of the method: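 Endogenous enzyme in A375 Golgi preparations (1.5 μg total protein) was preincubated 30 min with compound, then reacted 20 h at room temperature with UDP-glucose and ceramide.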

`Cc1cc2c(c(NC(=O)c3ccnc4c3CCC4)c1)C(=O)N(CC1CC1)C2` [Compound 148, N-(2-(Cyclopropylmethyl)-6-methyl-3-oxoisoindolin-4-yl)-6,7-dihydro-5H-cyclopenta[b]pyridine-4-carboxamide] showed an EC50 of 500 nM.
The value for `O=C(Nc1ccc(O)c2c1C(=O)N(CC1CC1)C2)c1ccnc2c1CCC2` [Compound 149, N-(2-(Cyclopropylmethyl)-7-hydroxy-3-oxoisoindolin-4-yl)-6,7-dihydro-5H-cyclopenta[b]pyridine-4-carboxamide] was 900 nM; that for `O=C(Nc1cccc2c1C(=O)N(c1ccc(F)cc1)C2)OC1CN2CCC1CC2` (centres unmarked) [Compound 150, Quinuclidin-3-yl(2-(4-fluorophenyl)-3-oxoisoindolin-4-yl)carbamate] was 740 nM.
For `CC(C)(O)[C@@H](C1CC1)N1Cc2cccc(NC(=O)c3cccn4nccc34)c2C1=O` [Compound 156, (R)-N-(2-(1-cyclopropyl-2-hydroxy-2-methylpropyl)-3-oxoisoindolin-4-yl)pyrazolo[1,5-a]pyridine-4-carboxamide] the value was 0.97 nM; for `COc1nccc(C(=O)Nc2cccc3c2C(=O)N([C@H](C2CC2)C(C)(C)O)C3)c1C` [Compound 159, (R)-N-(2-(1-cyclopropyl-2-hydroxy-2-methylpropyl)-3-oxoisoindolin-4-yl)-2-methoxy-3-methylisonicotinamide], 2.5 nM; for `Cn1cc2c(C(=O)Nc3cc(F)cc4c3C(=O)N([C@H](C3CC3)C(C)(C)O)C4)cccc2n1` [Compound 161, (R)-N-(2-(1-cyclopropyl-2-hydroxy-2-methylpropyl)-6-fluoro-3-oxoisoindolin-4-yl)-2-methyl-2H-indazole-4-carboxamide], 9.1 nM.
`O=C(Nc1cccc2c1C(=O)N(CC1(O)CCC1)C2)c1ccnc2c1CCC2` [Compound 166, N-(2-((1-hydroxycyclobutyl)methyl)-3-oxoisoindolin-4-yl)-6,7-dihydro-5H-cyclopenta[b]pyridine-4-carboxamide] gave an EC50 of 360 nM.
In turn, `Cc1ccc(F)c(C(=O)Nc2cncc3c2C(=O)N([C@H](C2CC2)C(C)(C)O)C3)c1Cl` [Compound 167, (R)-2-chloro-N-(2-(1-cyclopropyl-2-hydroxy-2-methylpropyl)-1-oxo-2,3-dihydro-1H-pyrrolo[3,4-c]pyridin-7-yl)-6-fluoro-3-methylbenzamide] showed an EC50 of 2.1 nM.

The EC50 is the concentration needed to bring the measured effect to its halfway point. A higher EC50 goes with a less potent agent.
